# In the METLIN SMRT retention time set (Domingo-Almenara et al. 2019):
# Test: gradient 5% acetonitrile 3 min, to 50% in 2 min, to 85% in 15 min, held 3 min, 100 µL/min
# Conditions: column: Zorbax Extend-C18 2.1 x 50 mm; eluents: water / acetonitrile, 0.1% formic acid
# How it was run: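 Retention time was recorded from adduct peaks, which were picked computationally and each inspected manually. Pure standards ran in mixtures of ~100 molecules on HPLC coupled to a quadrupole time-of-flight mass spectrometer, in positive and negative ionization mode, through a Zorbax Extend-C18 column (2.1 × 50 mm, 1.8 μm) at 100 μL/min. Eluents were water and acetonitrile, each with 0.1% formic acid.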
row,SMILES,RP-LC retention time [s]
1,CN(C)C(=O)c1ccc2c(c1)nnn2CCNC(=O)Nc1ccc(F)cc1,640
2,O=C(Nc1ccc2c(c1)OCCO2)N1CCC(Cc2nncn2-c2ccccc2)CC1,706
3,O=C(Cc1csc(-c2ccccc2)n1)Nc1nc(-c2cccc(Br)c2)cs1,1270
4,CSc1ccc(-c2noc(-c3nnn4c3COC(c3ccc(C)cc3C)C4)n2)cc1 (configuration not stated),1360
5,CCOC(=O)c1c(C)oc2nc(C)nc(NCc3ccc(OC)cc3OC)c12,1140
6,CC(NC(=O)Cc1cccn1-c1ccc(F)cc1)c1ccccc1 (configuration not stated),962
7,CCN1C(=O)CC[C@]2(CNC(=O)c3ccc(OC)nc3)CCC[C@@H]12,671
8,Cc1ccc(-n2ccc(=O)c(-c3nc(-c4ccccc4C)no3)n2)cc1,987
9,CCOc1ccc(S(=O)(=O)NC2CCN(c3ccc(=O)n(CC4CC4)n3)C2)cc1 (configuration not stated),834
10,CCOc1ccc(-n2ccn3cc(-c4ccc(Br)cc4)nc3c2=O)cc1,954
11,CCOC(=O)c1nc(Nc2cc(Cl)ccc2C)c2ccccc2n1,929
12,O=C(Cn1ncc2c(N3CCN(c4ccccn4)CC3)ncnc21)Nc1ccc(F)c(F)c1,572
13,CCc1nc2cc(-c3noc(-c4ccc(Br)o4)n3)ccc2o1,1190
14,COc1ccc(NC(=O)c2cc3c(=O)n(CC(C)C)c4ccccc4n3n2)cc1OC,910
15,CC(C)(O)CC[C@@H](O)[C@@](C)(O)[C@H]1CC[C@@]2(O)C3=CC(=O)[C@@H]4C[C@@H](O)[C@@H](O)C[C@]4(C)[C@H]3CC[C@]12C,607
16,CSc1ccccc1NC(=O)c1coc(NC(=O)c2ccco2)n1,699
17,CC(=O)Nc1cccc(-c2nc(-c3ccc4c(c3)nnn4C3CCCC3)no2)c1,1010
18,CCCCN(CCCNc1nc(C(=O)OCC)nc2ccccc12)c1ccccc1,732
19,Cc1ccc(-c2ncccc2CNS(=O)(=O)c2ccc(Cl)cc2)cc1,766
20,COc1cccc(NC(=O)N2CCCC2c2nc(-c3ccccc3OC)no2)c1 (configuration not stated),843
21,COc1ccc2c(c1)[C@H]1OCCC[C@H]1C(c1cccc(O)c1)N2 (some centres not stated),793
22,Cc1cc(NC(=O)NC2CCN(c3nc4ccccc4n(C)c3=O)CC2)ccc1Br,1050
23,COc1c(C(=O)NCc2ccc3c(c2)OCO3)sc2cc(Cl)ccc12,1070

row,SMILES,RP-LC retention time [s]
1,COCc1cc(=O)n(CC(=O)Nc2cccc(F)c2)c(N)n1,618
2,CCN1c2ccc(F)cc2C(=O)NC12CCN(C(=O)c1ccc(F)cc1)CC2,714
3,Cc1cc(C)n(Cc2nc(-c3ccc(NC(=O)C4CCCO4)cc3)oc2C)n1 (configuration not stated),795
4,COc1cc(Br)cc(CC2C(=O)Nc3ccccc32)c1OC (configuration not stated),932
5,COc1ccc(Cl)cc1NC(=O)Nc1ccccc1NC(=O)c1ccco1,873
6,COc1cc2c(cc1OC)C1C(C(=O)NCCCN3CCN(C)CC3)c3ccccc3C(=O)N1CC2 (configuration not stated),547
7,O=C(c1ccc(Br)o1)N1CCC2(CC1)OCCS2,771
8,CC(C)NC(=O)c1ccc(OCC2CCN(C(=O)c3ccc(F)c(F)c3)CC2)cc1,873
9,Cc1onc(-c2ccc(Br)cc2)c1C(=O)NCc1cccs1,988
10,Cc1cccc(C(=O)N2C[C@H](c3nc(-c4ccccc4)no3)[C@@H](C)C2)c1,731
11,Cc1ccc(CNS(=O)(=O)c2cc3n(c2)CCCNC3=O)cc1,658
12,Cc1nc(-c2cccc(F)c2)sc1C(=O)N(C)C,799
13,CCOc1cccc(-c2noc(CN3C(=O)C(C)Oc4ccccc43)n2)c1 (configuration not stated),1140
14,CCc1nc2cc(N3CCC(C(=O)NCc4ccc(N(C)C)cc4)CC3)cnc2nc1CC,627
15,COc1ccc(C2CC(=O)N(c3ccc(C)c(Cl)c3)C(=O)C2)cc1OC,652
16,Cc1nc(-c2ccc(C(=O)NC(C)C)cc2)no1,693
17,Brc1cccc(-c2noc(CSc3nccn3-c3ccccc3)n2)c1,1020
18,COC(=O)c1scc(C)c1NC(=O)C(C)NC(C)C (configuration not stated),618
19,COc1ccc(NC(=O)c2cc3c(=O)n(CC(C)C)c4ccccc4n3n2)c(OC)c1,1180
20,CCn1cc(C(=O)Nc2cc(C)cc(C)c2)c(S(=O)(=O)N2CCSCC2)n1,944
21,COc1cc(NC(=O)C2CC(=O)N(CCc3c[nH]c4ccc(F)cc34)C2)cc(OC)c1OC (configuration not stated),744
22,NS(=O)(=O)c1cccnc1Nc1ccc(Oc2ccccc2)cc1,953
23,CCc1nc(OCC(=O)Nc2ccc(F)c(Cl)c2)c2ccccc2n1,888

# Next, values leading:
row,RP-LC retention time [s],SMILES
1,788,O=C(c1cccs1)N1CC(C(=O)N2CCN(c3ccccc3Cl)CC2)C1
2,596,COCCn1c(CCCC(=O)N2CCN(c3ncccn3)CC2)nc2cccnc21
3,876,Cc1cc(N2CCN(S(=O)(=O)c3ccc(C)c(C)c3)CC2)nc(NC2CCCCC2)n1
4,598,O=C1CCN(C(=O)C2CCN(C(=O)C3CC3)CC2)CCCCCCN1
5,657,CN1CCCn2nc(C3CCN(C(=O)NCCc4ccccc4)CC3)cc2C1=O
6,600,COc1cccc(CN2CCc3nc(N4CCCC4)ncc3C2)c1
7,806,CCn1c(=O)c(=O)n(CC(=O)NC2CCCCCCC2)c2cccnc21
8,670,CCc1nc2cc(N3CCC(C(=O)NCC4CCCO4)CC3)cnc2nc1CC (configuration not stated)
9,957,CC1CCN(C(=O)c2ccc(OCC3CCN(C(=O)c4ccc(C#N)cc4)CC3)cc2)CC1
10,548,CC(=O)N1CCN(c2nc3c(s2)CC(C(=O)N2CCCCC2)CC3)CC1 (configuration not stated)
11,621,CCC(=O)N1CCCCCNC(=O)[C@@H]2CCC[C@@H]21
12,656,O=C(Nc1ccc2c(c1)OCCO2)C1CCCN(C(=O)c2cc(-c3ccccn3)n[nH]2)C1 (configuration not stated)
13,666,CCOC(=O)c1cccc(Nc2c(C(=O)N3CCCCC3C)cnc3nc(C)ccc23)c1 (configuration not stated)
14,1240,COc1ccc(Cl)cc1NC(=O)CSc1cc(N2CCN(c3ccccc3OC)CC2)ncn1
15,864,Cc1ccc(NC(=O)c2ccc3[nH]c4c(c3c2)CN(C(=O)C2CCC2)CC4)cc1
16,1040,CC1CCC(NC(=O)CN2C(=O)CCCc3cc(S(=O)(=O)N4CCC(C)CC4)ccc32)CC1 (configuration not stated)
17,889,CC(C)C(=O)Nc1ccc(C2(C(=O)NCc3ccco3)CCCCC2)cc1
18,641,Cc1nnsc1C(=O)N1CCC(CNC(=O)Cn2c(=O)oc3ccccc32)CC1
19,935,Cc1cc(N2CCCCC2)nc(N2CCN(S(=O)(=O)c3ccc(-c4ccccc4)cc3)CC2)n1
20,562,O=C1CC[C@@H](C(=O)N2CSC[C@H]2C(=O)O)N1
21,668,Cc1cccc(N2CCN(C(=O)c3cn4ccc(C)cc4n3)CC2)c1
